According to patent publication US20110105509A1 (Wyeth, LLC, priority 2009, published 2011):

Target: T1, CRTH2 (Homo sapiens, UniProt Q9Y5Y4)
T1 construct: expressed in transfected cells; host or cells: CHO cells
T1 sequence (Q9Y5Y4 1-395): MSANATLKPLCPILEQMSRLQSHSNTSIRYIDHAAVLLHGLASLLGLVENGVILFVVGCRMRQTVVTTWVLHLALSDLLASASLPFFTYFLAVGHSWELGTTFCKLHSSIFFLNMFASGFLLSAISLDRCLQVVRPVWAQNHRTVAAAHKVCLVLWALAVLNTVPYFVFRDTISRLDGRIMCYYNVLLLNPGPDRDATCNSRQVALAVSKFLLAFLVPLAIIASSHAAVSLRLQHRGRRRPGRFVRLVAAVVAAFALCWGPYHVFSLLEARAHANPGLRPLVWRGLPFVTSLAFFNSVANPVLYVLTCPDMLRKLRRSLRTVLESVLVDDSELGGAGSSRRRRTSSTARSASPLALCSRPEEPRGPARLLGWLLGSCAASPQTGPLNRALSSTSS
Test: FRET based competitive immunoassay (cAMP) in CRTH2 expressing CHO cells
Assay type: cell-based
Details: CRTH2 expressing CHO cells incubated with forskolin and PGD2; Eu3+ cryptate-labeled anti-cAMP and d2-labeled cAMP
Experimental: FRET Assay: To evaluate potency compounds were tested in a FRET based competitive immunoassay in which CRTH2 expressing CHO cells were incubated in the presence of forskolin and PGD2 along with Eu3+ cryptate-labeled anti-cAMP and d2-labeled cAMP.

Row | Structure (SMILES) | IC50 [nM]
1 | Cc1c(-c2nn(Cc3ccc(Cl)cc3Cl)c(=O)c3ccccc23)c2cc(Cl)ccc2n1CC(=O)O [Example 331, {5-chloro-3-[3-(2,4-dichlorobenzyl)-4-oxo-3,4-dihydrophthalazin-1-yl]-2-methyl-1H-indol-1-yl}acetic acid] | 3
2 | Cc1c(-c2nn(Cc3ccccc3)c(=O)c3ccccc23)c2cc(Cl)cc(Cl)c2n1CC(=O)O [Example 245, 2-(3-(3-benzyl-4-oxo-3,4-dihydrophthalazin-1-yl)-5,7-dichloro-2-methyl-1H-indol-1-yl)acetic acid] | 587
3 | Cc1c(-c2nn(Cc3ccc(S(C)(=O)=O)cc3)c(=O)c3ccccc23)c2cc(F)ccc2n1CC(=O)O [Example 65, 2-(5-fluoro-2-methyl-3-(3-(4-(methylsulfonyl)benzyl)-4-oxo-3,4-dihydro-phthalazin-1-yl)-1H-indol-1-yl)acetic acid] | 18
4 | Cc1c(-c2ccc(=O)n(Cc3cccc(F)c3F)c2)c2cc(F)ccc2n1CC(=O)N1CCCC1 [Example 299, 1-(2,3-difluorobenzyl)-5-(5-fluoro-2-methyl-1-(2-oxo-2-(pyrrolidin-1-yl)-ethyl)-1H-indol-3-yl)pyridin-2(1H)-one] | > 2000
5 | Cc1c(Cc2ccc(=O)n(Cc3cccc(F)c3F)c2)c2ccccc2n1CC(=O)O [Example 29] | 72
6 | Cc1c(-c2nn(Cc3ccccc3C(F)(F)F)c(=O)c3ccccc23)c2cc(Cl)ccc2n1CC(=O)O [Example 199, 2-(5-chloro-2-methyl-3-(4-oxo-3-(2-(trifluoromethyl)benzyl)-3,4-dihydrophthalazin-1-yl)-1H-indol-1-yl)acetic acid] | 19
7 | Cc1c(-c2ccc(=O)n(CC(F)(F)F)c2)c2cc(Cl)ccc2n1CC(=O)O [Example 281, 2-(5-chloro-2-methyl-3-(6-oxo-1-(2,2,2-trifluoroethyl)-1,6-dihydropyridin-3-yl)-1H-indol-1-yl)acetic acid] | 240
8 | Cc1c(-c2nn(Cc3nc4cc(C(F)(F)F)ccc4s3)c(=O)c3ccccc23)c2cc(Cl)ccc2n1CC(=O)O [Example 100, 2-(5-chloro-2-methyl-3-(4-oxo-3-((5-(trifluoromethyl)benzo[d]thiazol-2-yl)-methyl)-3,4-dihydrophthalazin-1-yl)-1H-indol-1-yl)acetic acid] | 81
9 | Cc1c(-c2ccc(=O)n(Cc3ccccc3)n2)c2cc(S(C)(=O)=O)ccc2n1CC(=O)O [Example 214, 2-(3-(1-benzyl-6-oxo-1,6-dihydropyridazin-3-yl)-2-methyl-5-(methylsulfonyl)-1H-indol-1-yl)acetic acid] | 351
10 | Cc1c(-c2nn(Cc3c(F)cccc3F)c(=O)c3ccccc23)c2ccccc2n1CC(=O)O [Example 172, 2-(3-(3-(2,6-difluorobenzyl)-4-oxo-3,4-dihydrophthalazin-1-yl)-2-methyl-1H-indol-1-yl)acetic acid] | 40
11 | Cc1c(-c2nn(CCOc3ccccc3)c(=O)c3ccccc23)c2ccccc2n1CC(=O)O [Example 223, 2-(2-methyl-3-(4-oxo-3-(2-phenoxyethyl)-3,4-dihydrophthalazin-1-yl)-1H-indol-1-yl)acetic acid] | 6
12 | COc1ccc(Cn2nc(-c3c(C)n(CC(=O)O)c4ccc(Cl)cc34)ccc2=O)cc1 [Example 148, 2-(5-chloro-3-(1-(4-methoxybenzyl)-6-oxo-1,6-dihydropyridazin-3-yl)-2-methyl-1H-indol-1-yl)acetic acid] | 42
13 | Cc1c(Cc2ccc(=O)n(Cc3cccc(F)c3F)n2)c2ccccc2n1CC(=O)O [Example 79, 2-(3-((1-(2,3-difluorobenzyl)-6-oxo-1,6-dihydropyridazin-3-yl)methyl)-2-methyl-1H-indol-1-yl)acetic acid] | 22
14 | Cc1c(-c2nn(CCc3ccccc3)c(=O)c3ccccc23)c2ccccc2n1CC(=O)O [Example 225, 2-(2-methyl-3-(4-oxo-3-phenethyl-3,4-dihydrophthalazin-1-yl)-1H-indol-1-yl)acetic acid] | 27
15 | Cc1c(-c2ccc(=O)n(Cc3ccccc3)c2)c2cc(Cl)ccc2n1CC(=O)O [Example 264, 2-(3-(1-benzyl-6-oxo-1,6-dihydropyridin-3-yl)-5-chloro-2-methyl-1H-indol-1-yl)acetic acid] | 10
16 | Cc1c(-c2ccc(=O)n(CCCC(F)(F)F)c2)c2cc(F)ccc2n1CC(=O)O [Example 297, 2-(5-fluoro-2-methyl-3-(6-oxo-1-(4,4,4-trifluorobutyl)-1,6-dihydropyridin-3-yl)-1H-indol-1-yl)acetic acid] | 38

Row | Structure (SMILES) | IC50 [nM]
17 | Cc1c(-c2nn(Cc3nc4cc(Cl)ccc4s3)c(=O)c3ccccc23)c2cc(Cl)ccc2n1CC(=O)O [Example 209, 2-(5-chloro-3-(3-((5-chlorobenzo[d]thiazol-2-yl)methyl)-4-oxo-3,4-dihydro-phthalazin-1-yl)-2-methyl-1H-indol-1-yl)acetic acid] | 14
18 | Cc1c(-c2ccc(=O)n(Cc3c(F)cccc3F)c2)c2cc(F)ccc2n1CC(=O)O [Example 268, 2-(3-(1-(2,6-difluorobenzyl)-6-oxo-1,6-dihydropyridin-3-yl)-5-fluoro-2-methyl-1H-indol-1-yl)acetic acid] | 7
19 | Cc1c(-c2nn(Cc3ccc(OC(F)(F)F)cc3)c(=O)c3ccccc23)c2cc(F)ccc2n1CC(=O)O [Example 117, 2-(5-fluoro-2-methyl-3-(4-oxo-3-(4-(trifluoromethoxy)benzyl)-3,4-dihydro-phthalazin-1-yl)-1H-indol-1-yl)acetic acid] | 22
20 | Cc1c(-c2cn(CCC(C)(C)O)c(=O)c3ccccc23)c2cc(F)ccc2n1CC(=O)O [Example 272, 2-(5-fluoro-3-(2-(3-hydroxy-3-methylbutyl)-1-oxo-1,2-dihydroisoquinolin-4-yl)-2-methyl-1H-indol-1-yl)acetic acid] | 23
21 | Cc1c(-c2ccc(=O)n(Cc3cccc(F)c3F)c2)c2cc(F)ccc2n1[C@H](C)C(=O)O [Example 306b, (R)-2-(3-(1-(2,3-difluorobenzyl)-6-oxo-1,6-dihydropyridin-3-yl)-5-fluoro-2-methyl-1H-indol-1-yl)propanoic acid] | > 2000
22 | Cc1c(Cc2ccc(=O)n(Cc3ccc(C(F)(F)F)cc3)n2)c2cc(F)ccc2n1CC(=O)O [Example 82, 2-(5-fluoro-2-methyl-3-((6-oxo-1-(4-(trifluoromethyl)benzyl)-1,6-dihydro-pyridazin-3-yl)methyl)-1H-indol-1-yl)acetic acid] | 16
23 | Cc1c(Cc2cn(Cc3ccccc3)c(=O)c3ccccc23)c2ccccc2n1CC(=O)O [Example 86, 2-(3-((2-benzyl-1-oxo-1,2-dihydroisoquinolin-4-yl)methyl)-2-methyl-1H-indol-1-yl)acetic acid] | 197
24 | Cc1c(-c2nn(Cc3ccccc3)c(=O)c3ccccc23)c2cc(S(C)(=O)=O)ccc2n1CC(=O)O [Example 215, 2-(3-(3-benzyl-4-oxo-3,4-dihydrophthalazin-1-yl)-2-methyl-5-(methylsulfonyl)-1H-indol-1-yl)acetic acid] | 27
25 | Cc1c(-c2nn(C)c(=O)c3ccccc23)c2cc(F)ccc2n1CC(=O)O [Example 120, 2-(5-fluoro-2-methyl-3-(3-methyl-4-oxo-3,4-dihydrophthalazin-1-yl)-1H-indol-1-yl)acetic acid] | 201
26 | Cc1c(-c2ccc(=O)n(C(C)C)n2)c2cc(Cl)cc(Cl)c2n1CC(=O)O [Example 235, 2-(5,7-dichloro-3-(1-isopropyl-6-oxo-1,6-dihydropyridazin-3-yl)-2-methyl-1H-indol-1-yl)acetic acid] | 1580
27 | Cc1c(-c2ccc(=O)n(Cc3ccc(Cl)cc3)n2)c2cc(F)ccc2n1CC(=O)O [Example 13, 2-(3-(1-(4-Chlorobenzyl)-6-oxo-1,6-dihydropyridazin-3-yl)-5-fluoro-2-methyl-1H-indol-1-yl)acetic acid] | 5
28 | Cc1c(-c2ccc(=O)n(Cc3cccc(F)c3F)c2)c2cc(F)ccc2n1CC(=O)NS(C)(=O)=O [Example 302, 2-(3-(1-(2,3-Difluorobenzyl)-6-oxo-1,6-dihydropyridin-3-yl)-5-fluoro-2-methyl-1H-indol-1-yl)-N-(methylsulfonyl)acetamide] | 159
29 | Cc1cc(Cn2nc(-c3c(C)n(CC(=O)O)c4ccc(F)cc34)ccc2=O)c2ccccc2n1 [Example 158, 2-(5-fluoro-2-methyl-3-(1-((2-methylquinolin-4-yl)methyl)-6-oxo-1,6-dihydro-pyridazin-3-yl)-1H-indol-1-yl)acetic acid] | 73
30 | Cc1c(Cc2ccc(=O)n(Cc3ccccc3F)n2)c2ccccc2n1CC(=O)O [Example 74, 2-(3-((1-(2-fluorobenzyl)-6-oxo-1,6-dihydropyridazin-3-yl)methyl)-2-methyl-1H-indol-1-yl)acetic acid] | 2
31 | Cc1c(-c2cn(CCCC(F)(F)F)c(=O)c3ccccc23)c2cc(F)ccc2n1CC(=O)O [Example 256, (5-fluoro-2-methyl-3-(1-oxo-2-(4,4,4-trifluorobutyl)-1,2-dihydroisoquinolin-4-yl)-1H-indol-1-yl)acetic acid] | 2
32 | Cc1c(-c2ccc(=O)n(Cc3cccc(F)c3F)c2)c2ccccc2n1CC(=O)O [Example 284, 2-(3-(1-(2,3-difluorobenzyl)-6-oxo-1,6-dihydropyridin-3-yl)-2-methyl-1H-indol-1-yl)acetic acid] | 15
